System: TRPM2-expressing HEK-293 cells
Assay: Cell viability assay (calcein fluorescence), tet-inducible TRPM2 HEK-293 cells
Format: cell-based
Method: Shown are HEK-293 cells (closed diamond) and HEK-293 cells stably transfected with a tet-controlled TRPM2 construct in the presence (open squares) or absence of (open diamonds) tetracycline. […] TRPM2-expressing HEK-293 cells were grown in complete DMEM media and 1 μg/ml tetracycline until 80-90% confluent. One set of cells were re-fed with the same complete media (closed diamonds) and the other set of cells were rinsed with PBS and fed with modified media containing 1 μg/ml tetracycline, 5 mM EGTA and without calcium chloride (open squares). […] HEK-293 (close diamond) and TRPM2 expressing HEK-293 cells in the absence (open diamond) or presence of (closed square) tetracycline were exposed to 0-10 μg/ml cycloheximide for 16 h. Cell viability was determined as described in (a).
TRPM2-expressing HEK-293 cells were exposed to 0-50 μM puromycin for 16 h in the presence (open diamond) or absence (closed diamond) of 500 μM nicotinamide. […] TRPM2-expressing HEK-293 cells were exposed to 0-50 μM puromycin for 16 h in the presence (open diamond) or absence (closed diamond) of 1.5 mM 3-aminobenzamide. Cell survival was determined as described in (a).
HEK-293 and tetracycline (tet)-inducible HEK-293 TRPM2-expressing cells (23) were cultured in DMEM and 10% FBS at 37° C., 5% CO2. Media used to culture tet-inducible HEK-293 cells was supplemented with blasticidin (5 μg ml^−1; Invitrogen) and zeocin (0.4 mg/ml; Invitrogen). To induce expression of TRPM2 in recombinant HEK-293 cells, tetracycline was added to the media at 1 μg ml^−1 (Invitrogen) 24 h prior to experiments. The CRI-G1 rat β-islet tumor cell line was obtained from EACC and cultured in DMEM, 10% FBS and 2 mM glutamine.
HEK-293, tet-inducible HEK-293, and CRI-G1 cells were seeded into 6 well plates at a density of 500,000 cells per well. When cells were 50-70% confluent, puromycin was added to the media at various concentrations for 16 hours. Cell monolayers were rinsed with PBS, after which 0.5 ml of 2 μM calcein in PBS was added directly to the well for 10-20 minutes. Calcein is retained in living, but not dead cells, where it undergoes catalytic conversion into a fluorescent compound Fluorescence in each well was measured in a microplate reader using excitation and emission filters at 485/530 nm, respectively.

SMILES: COc1ccc(C[C@H](N)C(=O)N[C@H]2[C@@H](O)[C@H](n3cnc4c(N(C)C)ncnc43)O[C@@H]2CO)cc1 [puromycin]
- puromycin-induced cell death in Ca2+-free media (Ca2+ removed (5 mM EGTA) before puromycin 0-500 μM, 6 h): completely blocked
- puromycin-dependent cell death, TRPM2 not induced (TRPM2 expression not induced by tet): nearly complete protection
- puromycin-dependent cell death, TRPM2 not induced, highest level (not induced by tet, 50 μM puromycin): Some cell death
- cell death following puromycin treatment (tet-induced TRPM2 expression, as little as 5 μM, dose-dependence up to 50 μM, 16 h): profound sensitivity to cell death
